Our source for the Ki values is BindingDB's records for PubMed 11160626 (Japan Tobacco, 2001).

In assay [1] the target is Cannabinoid receptor 1 (Rattus norvegicus, UniProt P20272).
In assay [2] the target is Cannabinoid receptor 2 (Mus musculus, UniProt P47936).
The target of assay [3] is T1, Cannabinoid receptor 2 (Rattus norvegicus, UniProt Q9QZN9).
T1 sequence (Q9QZN9 whole entry): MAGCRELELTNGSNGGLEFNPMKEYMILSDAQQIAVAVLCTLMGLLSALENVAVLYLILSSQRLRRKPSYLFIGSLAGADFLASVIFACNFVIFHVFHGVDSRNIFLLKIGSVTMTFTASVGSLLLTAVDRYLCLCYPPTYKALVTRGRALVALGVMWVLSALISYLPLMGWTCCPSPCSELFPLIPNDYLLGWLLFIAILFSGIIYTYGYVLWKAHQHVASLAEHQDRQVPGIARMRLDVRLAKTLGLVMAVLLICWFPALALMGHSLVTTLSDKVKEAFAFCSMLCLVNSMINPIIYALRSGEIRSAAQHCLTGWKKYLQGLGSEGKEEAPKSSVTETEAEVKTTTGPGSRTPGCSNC

Assay [4] addresses Cannabinoid receptor 1 (Mus musculus, UniProt P47746).

Sequence of Cannabinoid receptor 2 (Mus musculus, UniProt P47936) (P47936 whole entry): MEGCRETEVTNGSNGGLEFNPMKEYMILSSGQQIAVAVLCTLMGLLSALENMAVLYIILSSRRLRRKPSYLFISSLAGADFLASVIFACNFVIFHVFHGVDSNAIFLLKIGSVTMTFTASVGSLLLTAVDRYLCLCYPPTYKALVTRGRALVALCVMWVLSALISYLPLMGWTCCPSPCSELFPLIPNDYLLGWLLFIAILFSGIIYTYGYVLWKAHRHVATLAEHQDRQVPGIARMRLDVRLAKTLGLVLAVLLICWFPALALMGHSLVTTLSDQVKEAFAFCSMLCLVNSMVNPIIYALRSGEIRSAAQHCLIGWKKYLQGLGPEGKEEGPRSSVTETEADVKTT
Sequence of Cannabinoid receptor 1 (Rattus norvegicus, UniProt P20272) (P20272 whole entry): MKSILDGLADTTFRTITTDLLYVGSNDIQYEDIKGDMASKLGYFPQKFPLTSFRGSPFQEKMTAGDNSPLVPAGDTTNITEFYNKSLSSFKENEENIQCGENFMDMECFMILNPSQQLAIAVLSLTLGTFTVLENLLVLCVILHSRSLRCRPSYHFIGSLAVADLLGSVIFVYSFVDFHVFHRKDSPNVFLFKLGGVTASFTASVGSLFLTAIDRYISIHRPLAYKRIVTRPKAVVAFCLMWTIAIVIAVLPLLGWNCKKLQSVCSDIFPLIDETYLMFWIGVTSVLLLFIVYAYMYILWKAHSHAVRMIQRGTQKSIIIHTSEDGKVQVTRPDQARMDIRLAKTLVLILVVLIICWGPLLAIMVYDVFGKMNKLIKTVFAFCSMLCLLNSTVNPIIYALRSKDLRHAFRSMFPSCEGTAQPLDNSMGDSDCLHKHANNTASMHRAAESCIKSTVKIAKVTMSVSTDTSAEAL
Sequence of Cannabinoid receptor 1 (Mus musculus, UniProt P47746) (P47746 whole entry): as the sequence (P20272 whole entry) above, with E95D counted along it

Turning to `CCCCCOc1c(OC)ccc2cc(C(=O)NCc3ccc4c(c3)OCO4)c(=O)[nH]c12` [N-(1,3-Benzodioxole-5-ylmethyl)-2-oxo-7-methoxy-8-pentoxy-1,2-dihydro-3-quinolinecarboxamide], the inhibitory constant (Ki) worked out at 1050 nM at Cannabinoid receptor 1 [1], 1.55 nM on Cannabinoid receptor 2 [2], 0.38 nM on Cannabinoid receptor 2 [3] and 1060 nM at Cannabinoid receptor 1 [4].
Take `CCCCCc1cc(O)c2c(c1)OC(C)(C)[C@@H]1CCC(C)=CC21` (stereo partly specified) [Tetrahydrocannabinol]: the affinity on Cannabinoid receptor 2 [2], expressed as Ki, was 1.73 nM.
At Cannabinoid receptor 2 [2], `Cc1c(C(=O)c2cccc3ccccc23)c2cccc3c2n1[C@H](CN1CCOCC1)CO3` [WIN55212-2] registered a Ki of 0.56 nM.

As a reminder, the Ki is a measure of affinity in units of concentration, obtained from inhibition or displacement.
